The test system of this assay is Chlamydomonas reinhardtii CW-15 cells. Put plainly: Nile Red Assay of lipid content in cells grown with cycloheximide. It counts as cell-based. As for the experimental part:
FIG. 4A illustrates the graphical representation of fluorescence observed for Chlamydomonas reinhardtii CW-15 cells (Day 4) in Tris Acetate Phosphate medium grown with and without cycloheximide using Nile Red Assay;
Chemical inhibition of protein synthesis is carried out using cycloheximide. Chlamydomonas reinhardtii CW-15 (Chlamydomonas Resource Center, USA), is grown in the presence of varying amounts of cycloheximide (50 μM to 500 μM) to find out the effect of inhibition of protein synthesis on lipid content. […] FIGS. 4B and 4C depict the Nile Red stained cells of Chlamydomonas reinhardtii CW-15 cells grown without the protein inhibitor and in the presence of the protein inhibitor, respectively.

Each structure is given as a SMILES string.

For `C[C@@H]1C[C@@H]([C@H](O)CC2CC(=O)NC(=O)C2)C(=O)[C@@H](C)C1` [cycloheximide], the “lipid content (Nile Red fluorescence)” value (Chlamydomonas reinhardtii CW-15 grown with cycloheximide 50 μM to 500 μM vs without, Day 4, Tris Acetate Phosphate medium) is “increase in lipid content”; the “lipid content (Nile Red fluorescence)” value (cells grown in the presence of 50 μM of cycloheximide) is recorded as “Highest lipid content”; the “lipid content (Nile Red fluorescence)” value (higher amounts of cycloheximide (more than 200 μM)) is reported as “decrease in the lipid content”.

Source of the values: patent US10059968B2, “Method for increasing lipid content in microorganisms and modified microorganisms therefrom” (Reliance […], priority 2014, dated 2018).
